{
  "source": "paper PMC2765805",
  "about": "(Journal of medicinal chemistry, 2009)",
  "key": {"[1]": {"molecular_target": "T1, human A3 adenosine receptor (Homo sapiens, UniProt P0DMS8)", "T1 sequence (P0DMS8 1-318)": "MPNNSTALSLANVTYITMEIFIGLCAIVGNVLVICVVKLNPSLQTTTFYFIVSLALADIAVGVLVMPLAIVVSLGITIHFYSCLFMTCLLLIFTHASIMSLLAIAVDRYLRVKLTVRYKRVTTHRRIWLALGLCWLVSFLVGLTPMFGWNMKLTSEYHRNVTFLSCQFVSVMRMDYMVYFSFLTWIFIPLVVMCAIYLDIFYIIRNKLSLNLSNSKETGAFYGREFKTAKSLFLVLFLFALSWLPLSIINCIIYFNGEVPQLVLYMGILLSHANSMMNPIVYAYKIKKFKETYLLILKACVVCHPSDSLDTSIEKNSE", "experiment": "biochemical", "parameters": "species or system CHO", "conditions": "read-out: % inhibition"}, "[2]": {"molecular_target": "T1, human A3 adenosine receptor", "experiment": "biochemical", "parameters": "species or system CHO", "conditions": "read-out: % inhibition", "remark": "listed apart in the source"}},
  "note": "Where two headings read alike, the source gives them in different places.",
  "data": [
    {"smiles": "Clc1ccc(Nc2nc3ccccc3c3[nH]c(C4CCCCC4)nc23)cc1Cl", "note": "[compound 3]", "values": [
      {"measurement": "inhibition at 10 µM", "setting": "[1]", "result": "40.5 ± 13.4", "unit": "%"},
      {"measurement": "inhibition at 10 µM", "setting": "[2]", "result": "40.5 ± 13.4", "unit": "%"}
    ]}
  ]
}
